Tests used:
[1] = Metabolic stability in dog hepatocytes assessed as bioavailability at 1 uM measured upto 90 mins by LC-MS/MS analysis; type: ADME, Canis lupus familiaris, Hepatocyte
[2] = Metabolic stability in rat hepatocytes assessed as bioavailability at 1 uM measured upto 90 mins by LC-MS/MS analysis; type: ADME, Hepatocyte
[3] = Metabolic stability in mouse hepatocytes assessed as bioavailability at 1 uM measured upto 90 mins by LC-MS/MS analysis; type: ADME, Hepatocyte
[4] = Selectivity ratio of IC50 for inhibition of full-length human PDE3A expressed in Sf9 cells to EC50 for antiproliferative activity against human HeLa cells
[5] = Metabolic stability in human hepatocytes assessed as bioavailability at 1 uM measured upto 90 mins by LC-MS/MS analysis; type: ADME, Hepatocyte
[6] = molecular target: cGMP-inhibited 3',5'-cyclic phosphodiesterase 3A (Homo sapiens, UniProt Q14432); test: Inhibition of human full-length PDE3A expressed in Sf9 cells using [8-3H]adenosine 3', 5'-cyclic phosphate as substrate incubated for 60 mins by microbeta scintillation counting method
Chain of cGMP-inhibited 3',5'-cyclic phosphodiesterase 3A (Q14432 whole entry): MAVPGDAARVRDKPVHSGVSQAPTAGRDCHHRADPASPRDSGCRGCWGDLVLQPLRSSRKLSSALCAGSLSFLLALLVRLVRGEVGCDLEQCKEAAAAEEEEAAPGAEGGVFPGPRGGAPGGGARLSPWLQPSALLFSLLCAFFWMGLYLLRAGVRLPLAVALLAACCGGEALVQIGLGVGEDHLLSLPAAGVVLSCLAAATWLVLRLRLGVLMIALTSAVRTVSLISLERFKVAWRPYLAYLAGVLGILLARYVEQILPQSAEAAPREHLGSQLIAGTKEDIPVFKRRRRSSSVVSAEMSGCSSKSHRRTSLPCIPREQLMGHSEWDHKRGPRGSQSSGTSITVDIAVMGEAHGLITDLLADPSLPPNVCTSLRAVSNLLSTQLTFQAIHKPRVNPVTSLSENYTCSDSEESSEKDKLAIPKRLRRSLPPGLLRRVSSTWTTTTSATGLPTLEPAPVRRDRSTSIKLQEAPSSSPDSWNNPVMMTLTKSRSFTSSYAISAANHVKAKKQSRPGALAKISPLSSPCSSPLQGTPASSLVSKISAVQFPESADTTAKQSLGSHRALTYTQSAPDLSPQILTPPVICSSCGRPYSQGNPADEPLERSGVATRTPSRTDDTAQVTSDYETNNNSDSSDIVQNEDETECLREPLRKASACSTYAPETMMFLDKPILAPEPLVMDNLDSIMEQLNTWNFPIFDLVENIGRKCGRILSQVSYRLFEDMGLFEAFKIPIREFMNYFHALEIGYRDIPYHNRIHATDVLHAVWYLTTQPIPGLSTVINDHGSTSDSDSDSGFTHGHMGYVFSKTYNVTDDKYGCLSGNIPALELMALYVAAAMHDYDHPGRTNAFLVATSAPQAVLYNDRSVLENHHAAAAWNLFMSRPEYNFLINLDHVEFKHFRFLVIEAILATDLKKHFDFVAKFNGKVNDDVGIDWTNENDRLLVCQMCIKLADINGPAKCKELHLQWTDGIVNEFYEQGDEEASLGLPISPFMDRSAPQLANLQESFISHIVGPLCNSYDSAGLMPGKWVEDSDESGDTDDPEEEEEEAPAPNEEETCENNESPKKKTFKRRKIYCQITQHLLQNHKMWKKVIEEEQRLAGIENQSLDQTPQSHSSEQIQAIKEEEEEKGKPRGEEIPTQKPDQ

HeLa = test: Antiproliferative activity against human HeLa cells incubated for 72 hrs by Cell Titer Glo luminescence assay; type: functional, cell-based
SK-MEL3 = test: Antiproliferative activity against human SK-MEL3 cells incubated for 72 hrs by Cell Titer Glo luminescence assay; type: functional, cell-based; details: SK-MEL3, 72 h
[7] = Clearance in mouse blood; type: ADME, tissue-based

Row | Fh at 1.5 h, 1 µM [1] [%] | predicted hepatic bioavailability (Fh) from hepatocyte stability at 1 µM [2] [%] | Fh at 1.5 h, 1 µM [3] [%] | hepatic bioavailability predicted from hepatocyte stability (Fh) at 1 µM [5] [%] | IC50 [6] [nM] | EC50 (HeLa) [nM] | EC50 (SK-MEL3) [nM] | clearance [7] [mL/min/kg] | SMILES | Ratio IC50/EC50 [4]
1 | 56 | 83 | 36 | 31 | 76 | 0.69 | 1.43 | 42 | C[C@@H]1OC(=O)NN=C1c1ccc(-c2ccnc(N)c2)c(C(F)(F)F)c1 | 109
2 | 24 | 78 | 53 |  | > 1000 | 11.1 | 0.25 |  | C[C@@H]1OC(=O)NN=C1c1ccc(-c2ccc(Cl)cn2)c(C(F)(F)F)c1 | >90
3 |  | 84 |  |  | 6.3 | 0.34 | 0.77 |  | C[C@@H]1OC(=O)NN=C1c1ccc(N2CCOCC2)c(C(F)(F)F)c1 | 18
4 |  |  |  |  |  | 21.8 | 37.7 |  | COc1ccc(-c2ccc(C3=NNC(=O)O[C@H]3C)cc2C(F)(F)F)cc1 | 4.1
5 |  |  |  |  |  | 4.58 | 6.13 |  | Cc1cc(-c2ccc(C3=NNC(=O)O[C@H]3C)cc2C(F)(F)F)ccn1 | 14
6 |  |  |  |  |  | 3.42 | 5.85 |  | C[C@@H]1OC(=O)NN=C1c1ccc(-c2cccc(F)c2)c(C(F)(F)F)c1 | 22
7 |  | 11 | 18 |  | 55 | 0.32 | 0.82 |  | C[C@@H]1OC(=O)NN=C1c1ccc(N2CCN(C)CC2)c(C(F)(F)F)c1 | 172
8 |  | 93 | 41 |  | 67 | 0.6 | 1.09 |  | C[C@@H]1OC(=O)NN=C1c1ccc(-c2ccncc2)c(C(F)(F)F)c1 | 112
9 |  |  |  |  |  | 38.7 | 54.2 |  | Cc1ccncc1-c1ccc(C2=NNC(=O)O[C@H]2C)cc1C(F)(F)F | 6
10 |  |  |  |  |  | 4.37 | 6.31 |  | Cc1ccc(-c2ccc(C3=NNC(=O)O[C@H]3C)cc2C(F)(F)F)cn1 | 8
11 | 44 | 84 | 38 | 70 |  | 2.54 | 7.95 | 5.83 | O=C1NN=C(c2ccc(-c3ccc(F)cc3)c(C(F)(F)F)c2)CO1 | 112
12 |  |  |  |  | 26.2 | 0.68 | 1.14 |  | C[C@@H]1OC(=O)NN=C1c1ccc(-c2ccc(O)cc2)c(C(F)(F)F)c1 | 38
13 |  |  |  |  |  | 8.19 | 15.1 |  | C[C@@H]1OC(=O)NN=C1c1ccc(-c2ccccc2F)c(C(F)(F)F)c1 | 18
14 |  |  |  |  |  | 22.5 | 39.8 |  | COc1ccc(-c2ccc(C3=NNC(=O)O[C@H]3C)cc2C(F)(F)F)cn1 | 4

Second part, the compound before the results:

Row | SMILES | Fh at 1.5 h, 1 µM [1] [%] | predicted hepatic bioavailability (Fh) from hepatocyte stability at 1 µM [2] [%] | Fh at 1.5 h, 1 µM [3] [%] | hepatic bioavailability predicted from hepatocyte stability (Fh) at 1 µM [5] [%] | IC50 [6] [nM] | EC50 (HeLa) [nM] | EC50 (SK-MEL3) [nM] | clearance [7] [mL/min/kg] | Ratio IC50/EC50 [4]
15 | O=C1NN=C(c2ccc(-c3ccc(F)cc3)c(OC(F)(F)F)c2)CO1 | 68 | 85 | 32 | 80 | 222 | 5.67 | 12.9 |  | 39
16 | O=C1NN=C(c2ccc(N3CCC(F)(F)CC3)c(F)c2)CO1 |  | 84 | 19 | 82 |  | 1.55 | 3.85 | 91.7 | 178
17 | O=C1CCC(c2cc(Cl)c(N3CCOCC3)c(Cl)c2)=NN1 |  |  |  |  |  | 6.9 | 16.8 |  | 8.5
18 | O=C1NN=C(c2ccc(N3CCOCC3)c(F)c2)CO1 | 100 | 94 | 47 |  | 180 | 6.9 | 15.6 |  | 26
19 | O=C1CCC(c2ccc(N3CCOCC3)c(F)c2)=NN1 |  |  | 80 |  | 190 | 6.18 | 19.9 |  | 31
20 | O=C1NN=C(c2ccc(-c3ccc(F)cc3)c(F)c2)CO1 |  | 84 | 54 |  | 84 | 1.48 | 3.6 |  | 57
21 | O=C1NN=C(c2ccc(N3CCC(F)(F)CC3)c(C(F)(F)F)c2)CO1 | 28 | 67 | 37 |  |  | 1.59 | 5.06 |  | 
22 | C[C@@H]1CC(=O)NN=C1c1ccc(N2CCCCC2)cc1 |  | 27 |  |  | 217 | 1.72 | 4.48 |  | 126
23 | O=C1NN=C(c2ccc(N3CCOCC3)c(C(F)(F)F)c2)CO1 |  | 83 |  |  | 23 | 1.87 | 3.4 |  | 12
24 | Cc1cc(C2=NNC(=O)OC2)ccc1-c1ccc(F)cc1 | 48 | 88 | 40 | 75 |  | 4.94 | 12.8 |  | 44
25 | O=C1CCC(c2ccc(N3CCOCC3)cc2)=NN1 |  |  |  |  | > 1000 | 78.3 | 101 |  | >12
26 | C[C@@H]1CC(=O)NN=C1c1cc(F)c(N2CCOCC2)c(Cl)c1 |  | 58 |  |  | 1.9 | 0.35 | 0.9 |  | 5.5
27 | C[C@@H]1CC(=O)NN=C1c1ccc(N2CCOCC2)c(F)c1 |  | 94 |  |  | 12.7 | 0.68 | 1.38 |  | 18
28 | C[C@@H]1OC(=O)NN=C1c1ccc(N2CCOCC2)c(F)c1 |  | 90 |  |  | 43 | 1.83 | 2.6 |  | 23
29 | C[C@@H]1CC(=O)NN=C1c1cc(F)c(N2CCOCC2)c(F)c1 |  | 90 |  |  | 3.95 | 0.97 | 2.07 |  | 4

Source: ChEMBL document CHEMBL6071190, “Discovery of BAY 2666605, a Molecular Glue for PDE3A and SLFN12” (ACS Med Chem Lett, 2024)
